In patent US8507560B2, “Pharmaceutical compositions comprising 3,4-dihydroisoquinolin-2(1H)-yl-3-phenylurea derivatives having formyl peptide receptor like-1 (FPRL-1) agonist or antagonist activity” (Allergan, Inc., priority 2010, dated 2013):

Biological target: T1, FPRL-1 (Homo sapiens, UniProt P25090)
T1 construct: expressed in transfected cells
T1 sequence (P25090 1-351): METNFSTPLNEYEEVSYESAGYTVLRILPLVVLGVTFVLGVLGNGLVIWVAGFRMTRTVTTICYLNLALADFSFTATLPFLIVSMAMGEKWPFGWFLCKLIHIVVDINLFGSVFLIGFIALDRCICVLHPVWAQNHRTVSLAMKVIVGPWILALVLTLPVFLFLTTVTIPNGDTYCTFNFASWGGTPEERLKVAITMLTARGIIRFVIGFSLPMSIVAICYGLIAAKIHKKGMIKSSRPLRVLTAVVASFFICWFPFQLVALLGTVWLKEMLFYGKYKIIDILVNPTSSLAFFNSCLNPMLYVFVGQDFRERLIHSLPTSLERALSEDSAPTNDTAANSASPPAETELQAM
Assay: FLIPR Tetra calcium activity assay in CHO-Ga16 cells stably expressing FPRL1
Assay type: cell-based
Settings: compound-induced calcium activity; for EC50: 0.61 to 10,000 nM; for FPRL-1 Ga16-CHO (eff) efficacy: efficacy value in parentheses
Experimental: CHO-Ga16 cells stably expressing FPRL1 were cultured in (F12, 10% FBS, 1% PSA, 400 μg/ml geneticin and 50 μg/ml hygromycin) and HEK-Gqi5 cells stable expressing FPR1 were cultured in (DMEM high glucose, 10% FBS, 1% PSA, 400 μg/ml geneticin and 50 μg/ml hygromycin). In general, the day before the experiment, 18,000 cells/well were plated in a 384-well clear bottom poly-d-lysine coated plate. The following day the screening compound-induced calcium activity was assayed on the FLIPR^Tetra. The drug plates were prepared in 384-well microplates using the EP3 and the MultiPROBE robotic liquid handling systems. Compounds were tested at concentrations ranging from 0.61 to 10,000 nM. Results are expressed as EC50 (nM) and efficacy values.

Row | EC50 | FPRL-1 Ga16-CHO (eff) efficacy | SMILES
1 | 0.143 µM | 0.61 | COc1cc2c(cc1OC)CN(C(=O)C(CCCCNC(=O)c1ccco1)NC(=O)Nc1ccc(C)cc1)CC2 (centres unmarked) [Compound 1]
2 | 0.091 µM | 0.79 | COc1cc2c(cc1OC)CN(C(=O)C(CCCCNC(=O)Nc1ccccc1)NC(=O)Nc1ccc(Br)cc1)CC2 (centres unmarked) [Compound 2]
3 | 0.032 µM | 0.76 | COc1cc2c(cc1OC)CN(C(=O)C(CCCCNC(=O)Nc1ccccc1)NC(=O)Nc1ccc(SC)cc1)CC2 (centres unmarked) [Compound 3]
4 | 0.059 µM | 0.71 | COc1cc2c(cc1OC)CN(C(=O)C(CCCCNC(=O)NC1CCCCC1)NC(=O)Nc1ccc(SC)cc1)CC2 (centres unmarked) [Compound 4]
